# Measurements taken from the OligoGym collection.
# Values joined by “and” are separate entries in the source; they are usually repeats but may differ in a detail not shown here. Identical values can stand only once. After the bases stand the sugars from the 5' end (letter, count) and the backbone: PS all phosphorothioate, else s phosphorothioate and o phosphodiester by linkage. Methylation of C is not given here. e = 2'-O-(2-methoxyethyl) (MOE); k = constrained ethyl (cEt); d = 2'-deoxy (DNA)
# Target: IRF4
# Conditions: ASO, KMS11, 0.2 µM
row,Sequence,target mRNA inhibition
1,"ATACTGGTTGGTTGGC (sugars k3 d10 k3, PS)",74% and 76%

# Same assay, conditions: ASO, MM.1R, 0.0625 µM
row,Sequence,target mRNA inhibition
1,"AGTGTCTAAAGTCCCA (sugars k3 d10 k3, PS)",15%
2,"ATACTGGTTGGTTGGC (sugars k3 d10 k3, PS)",51%
3,"ATCAGAAATCACGAGG (sugars k3 d10 k3, PS)",2%

# Same assay, conditions: ASO, MM.1R, 0.074 µM
row,Sequence,target mRNA inhibition
1,"AGTTGTAAATGAGTCG (sugars kkkdddddddddkeke, PS)",29%
2,"ATCAGAAATCACGAGG (sugars k3 d10 k3, PS)",-9%

# Same assay, conditions: ASO, MM.1R, 0.222 µM
row,Sequence,target mRNA inhibition
1,"AGTTGTAAATGAGTCG (sugars kkkdddddddddkeke, PS)",58%
2,"ATCAGAAATCACGAGG (sugars k3 d10 k3, PS)",-12%

# Same assay, conditions: ASO, MM.1R, 0.25 µM
row,Sequence,target mRNA inhibition
1,"AGTGTCTAAAGTCCCA (sugars k3 d10 k3, PS)",34%
2,"ATACTGGTTGGTTGGC (sugars k3 d10 k3, PS)",61%
3,"ATCAGAAATCACGAGG (sugars k3 d10 k3, PS)",1%

# Same assay, conditions: ASO, MM.1R, 0.666 µM
row,Sequence,target mRNA inhibition
1,"AGTTGTAAATGAGTCG (sugars kkkdddddddddkeke, PS)",76%
2,"ATCAGAAATCACGAGG (sugars k3 d10 k3, PS)",-4%

# Same assay, conditions: ASO, MM.1R, 1 µM
row,Sequence,target mRNA inhibition
1,"AGCCGAGGCCTCCTTT (sugars k3 d10 k3, PS)",-28%
2,"AGCTATGCTCTAGGAA (sugars k3 d10 k3, PS)",11%
3,"AGCTGCCACTGGTAAC (sugars k3 d10 k3, PS)",0%
4,"AGCTTGATAAAGGCTG (sugars kddddddddddkekek, PS)",1%
5,"AGCTTGATAAAGGCTG (sugars kkdddddddddekeke, PS)",18%
6,"AGGCACATCAATGTTT (sugars k2 d9 e3 k2, PS)",36% and 43%
7,"AGGCACATCAATGTTT (sugars kddddddddddkekek, PS)",5%
8,"AGGCACATCAATGTTT (sugars kkddddddddddkeke, PS)",16% and 14%
9,"AGGCAGGGACCGCGCC (sugars k3 d10 k3, PS)",-11%
10,"AGGGAGCTCATTTTGA (sugars k3 d10 k3, PS)",-8%
11,"AGGTTCCTGTCACCTG (sugars k3 d10 k3, PS)",-7%
12,"AGTATGAGAAACGGCC (sugars e1 k2 d9 k2 e2, PS)",12%
13,"AGTATGAGAAACGGCC (sugars kkdddddddddkdkdk, PS)",6%
14,"AGTATGAGAAACGGCC (sugars kkkddddddddkekek, PS)",10%
15,"AGTCGCGCAAGTCTAC (sugars k3 d10 k3, PS)",0%
16,"AGTGACTTGCATCCAT (sugars kddddddddddkekek, PS)",2%
17,"AGTGAGATGCGGAGGT (sugars k3 d10 k3, PS)",65%
18,"AGTGATGTCAGGTTTT (sugars kkdddddddddekeke, PS)",33%
19,"AGTGTCTAAAGTCCCA (sugars k2 d9 e3 k2, PS)",26% and 12%
20,"AGTGTCTAAAGTCCCA (sugars k3 d10 k3, PS)",42% and 58%
21,"AGTGTCTAAAGTCCCA (sugars kddddddddddkekek, PS)",-1% and 3%
22,"AGTGTCTAAAGTCCCA (sugars kkddddddddddkeke, PS)",32% and 39%
23,"AGTGTCTAAAGTCCCA (sugars kkdddddddddkdkdk, PS)",14% and -5%

row,Sequence,target mRNA inhibition
1,"AGTTCATGTAAAGTCT (sugars kdddddddddkekeke, PS)",29% and 10%
2,"AGTTCATGTAAAGTCT (sugars kkddddddddddkeke, PS)",45% and 49%
3,"AGTTGTAAATGAGTCG (sugars kdddddddddkekeke, PS)",47%
4,"AGTTGTAAATGAGTCG (sugars kkkdddddddddkeke, PS)",77%
5,"ATACATGTCTGGTTTA (sugars k3 d10 k3, PS)",4%
6,"ATACTGGTTGGTTGGC (sugars k3 d10 k3, PS)",69% and 75%
7,"ATCAGAAATCACGAGG (sugars k3 d10 k3, PS)",6%
8,"ATCCACTGGCACCAAG (sugars k3 d10 k3, PS)",5%
9,"ATCTGTATCATGCATA (sugars k3 d10 k3, PS)",24%
10,"ATGGCGAGTTGGCACA (sugars k3 d10 k3, PS)",49% and 48%
11,"ATGTGATAGCTGAGCT (sugars k3 d10 k3, PS)",26%
12,"ATGTGATAGCTGAGCT (sugars kddddddddddkekek, PS)",-3%
13,"ATGTGTATTACTCTTA (sugars k3 d10 k3, PS)",52% and 49%
14,"ATGTGTATTACTCTTA (sugars kkdddddddddkdkdk, PS)",44% and 32%
15,"ATGTTAGCCAATTCCT (sugars kkdddddddddekeke, PS)",27% and 30%
16,"ATGTTAGCCAATTCCT (sugars kkdddddddddkekek, PS)",28% and 44%
17,"ATTATATACTGGTTGG (sugars k2 d9 e3 k2, PS)",37%
18,"ATTCCAAACCTTAAGC (sugars k3 d10 k3, PS)",-1%
19,"ATTCCGCGCGCAGAGC (sugars k3 d10 k3, PS)",-21%
20,"ATTCTTGAATAGAGGA (sugars k3 d10 k3, PS)",16%
21,"ATTTATAACCGGTAGA (sugars k3 d10 k3, PS)",28%
22,"CAAAAGGTAGTAGACC (sugars k3 d10 k3, PS)",11%

# Same assay, conditions: ASO, MM.1R, 2 µM
row,Sequence,target mRNA inhibition
1,"AGTTGTAAATGAGTCG (sugars kkkdddddddddkeke, PS)",90%
2,"ATCAGAAATCACGAGG (sugars k3 d10 k3, PS)",9%

# Same assay, conditions: ASO, MM.1R, 4 µM
row,Sequence,target mRNA inhibition
1,"AGTGTCTAAAGTCCCA (sugars k3 d10 k3, PS)",75%
2,"ATACTGGTTGGTTGGC (sugars k3 d10 k3, PS)",86%
3,"ATCAGAAATCACGAGG (sugars k3 d10 k3, PS)",36%

# Same assay, conditions: ASO, SK-MEL-28, 4 µM
row,Sequence,target mRNA inhibition
1,"AGCCATCGGCAGCTGA (sugars k3 d10 k3, PS)",14%
2,"AGCCCAAAGTTACATC (sugars k3 d10 k3, PS)",42%
3,"AGCCCTTACCTCGCCC (sugars k3 d10 k3, PS)",25%
4,"AGCCGAAGCATTTTAT (sugars k3 d10 k3, PS)",44%
5,"AGCCGCCACATCAGCA (sugars k3 d10 k3, PS)",21%
6,"AGCTAACTTACAGGAC (sugars k3 d10 k3, PS)",-4%
7,"AGCTAGAACATGATGA (sugars k3 d10 k3, PS)",5%
8,"AGCTGAGCTGATCATC (sugars k3 d10 k3, PS)",56%
9,"AGCTTAGTTATCTGGG (sugars k3 d10 k3, PS)",54% and 59%
10,"AGCTTGATAAAGGCTG (sugars k3 d10 k3, PS)",36%
11,"AGGAACAAGTGTATCT (sugars k3 d10 k3, PS)",46%
12,"AGGAAGCACTGGCATC (sugars k3 d10 k3, PS)",57%
13,"AGGAGATATTAATTAC (sugars k3 d10 k3, PS)",57%
14,"AGGCACATCAATGTTT (sugars k3 d10 k3, PS)",51%
15,"AGGCACGGCTTCAGTC (sugars k3 d10 k3, PS)",49%
16,"AGGGAACAGATAGTTA (sugars k3 d10 k3, PS)",34%
17,"AGGGAATCCCTTATTA (sugars k3 d10 k3, PS)",6%
18,"AGGGTCACAGGTAAGG (sugars k3 d10 k3, PS)",68%
19,"AGGTAAGGGCCCCGTG (sugars k3 d10 k3, PS)",47%
20,"AGGTAGTGGCCCCAGC (sugars k3 d10 k3, PS)",60%

row,Sequence,target mRNA inhibition
1,"AGTACGAGCACATGTC (sugars k3 d10 k3, PS)",34%
2,"AGTACTTGGACAGAAG (sugars k3 d10 k3, PS)",43%
3,"AGTAGCTGGGCCCTCG (sugars k3 d10 k3, PS)",62%
4,"AGTCAGACAGTGCGCC (sugars k3 d10 k3, PS)",10%
5,"AGTCCTCAAATCTTCA (sugars k3 d10 k3, PS)",54%
6,"AGTTAAGGTGCCTCAA (sugars k3 d10 k3, PS)",-1%
7,"AGTTCATGTAAAGTCT (sugars k3 d10 k3, PS)",56% and 61%
8,"AGTTGTAAATGAGTCG (sugars k3 d10 k3, PS)",85%
9,"ATAAAGACCTTAACCA (sugars k3 d10 k3, PS)",27%
10,"ATAATTGGCACGAGGA (sugars k3 d10 k3, PS)",67%
11,"ATACTGTAAGGGCTGC (sugars k3 d10 k3, PS)",54%
12,"ATAGGAAGTTTACTAA (sugars k3 d10 k3, PS)",13%
13,"ATAGTAAATATCCTGT (sugars k3 d10 k3, PS)",36%
14,"ATATTCCAACAGGCGG (sugars k3 d10 k3, PS)",53%
15,"ATCAGAAATCACGAGG (sugars k3 d10 k3, PS)",71%
16,"ATCCACAATCAGCAAG (sugars k3 d10 k3, PS)",51%
17,"ATCTATAAGATGTATA (sugars k3 d10 k3, PS)",-1%
18,"ATCTTCACTGTTAGCT (sugars k3 d10 k3, PS)",74%
19,"ATGACGACTTAAGCTA (sugars k3 d10 k3, PS)",62%
20,"ATGATGTATACCAACG (sugars k3 d10 k3, PS)",86%

row,Sequence,target mRNA inhibition
1,"ATGCAAGCCCGTTAAT (sugars k3 d10 k3, PS)",4%
2,"ATGCTTGGCTCTGTGG (sugars k3 d10 k3, PS)",76%
3,"ATGGAACCCCAAAATC (sugars k3 d10 k3, PS)",24%
4,"ATGGAGATACTTGTAC (sugars k3 d10 k3, PS)",62%
5,"ATGGCAGTCTACAGAA (sugars k3 d10 k3, PS)",-2%
6,"ATGGCGGATAGATCTG (sugars k3 d10 k3, PS)",57%
7,"ATGTAAGTGATAGGTA (sugars k3 d10 k3, PS)",70%
8,"ATGTAGGGATACAGCA (sugars k3 d10 k3, PS)",74%
9,"ATTCTCCTCAACCGCT (sugars k3 d10 k3, PS)",35%
10,"ATTGAAATGGAGCATC (sugars k3 d10 k3, PS)",-1%
11,"ATTTATGCCCTCGCTC (sugars k3 d10 k3, PS)",26%
12,"ATTTTTTGGTTAGTCC (sugars k3 d10 k3, PS)",53%
13,"CAAAACGGACTGGAAC (sugars k3 d10 k3, PS)",16%
14,"CAAAAGTACCACAGGG (sugars k3 d10 k3, PS)",40%
15,"CAAAAGTGCCACAACT (sugars k3 d10 k3, PS)",10%
16,"CAAACACTAATACCTA (sugars k3 d10 k3, PS)",31%
17,"CAAACTATAATTGGCA (sugars k3 d10 k3, PS)",53%
18,"CAAAGACCAGCTTTTT (sugars k3 d10 k3, PS)",50%
